Where two headings read alike, the source gives them in different places.
How the values were obtained:
[1] = biological target: T1, Human recombinant PDE2A (hPDE2A) (Homo sapiens, UniProt O00408); assay: In vitro assay PDE2A (SPA, 3H-cGMP); format: biochemical
T1 construct: made in house; host or cells: Sf9 insect cells (baculovirus)
Protocol: Human recombinant PDE2A (hPDE2A) was expressed in Sf9 cells using a recombinant rPDE10A baculovirus construct. Cells were harvested after 48 h of infection and the hPDE2A protein was purified by metal chelate chromatography on Ni-sepharose 6FF. Tested compounds were dissolved and diluted in 100% DMSO to a concentration 100 fold of the final concentration in the assay. Compound dilutions (0.4 μl) were added in 384 well plates to 20 μl of incubation buffer (50 mM Tris pH 7.8, 8.3 mM MgCl2, 1.7 mM EGTA). 10 μl of hPDE2A enzyme in incubation buffer was added and the reaction was started by addition of 10 μl substrate to a final concentration of 10 μM cGMP and 0.01 μCi ^3H-cGMP. The reaction was incubated for 45 minutes at room temperature. […] After sedimentation of the beads during 30 minutes the radioactivity was measured in a Perkin Elmer Topcount scintillation counter and results were expressed as cpm. For blanc values the enzyme was omitted from the reaction and replaced by incubation buffer. Control values were obtained by addition of a final concentration of 1% DMSO instead of compound.

[2] = system: hPDE3B; assay: In vitro assay PDE3 (SPA, 3H-cAMP); format: biochemical, human; conditions: 0.4 μM cAMP substrate; for hPDE3B Emax: in % (unit assumed)
[3] = biological target: hPDE10A2 (Homo sapiens, UniProt Q9Y233); assay: biochemical; conditions: 60 nM cAMP substrate; for IC50: human clone, read-out: hPDE10A2 or rPDE10A2 pIC50 (converted); for Emax: read-out: hPDE10A2 or rPDE10A2 Emax, human clone
Protocol: Rat recombinant PDE10A (rPDE10A2) was expressed in Sf9 cells using a recombinant rPDE10A baculovirus construct. Cells were harvested after 48 h of infection and the rPDE10A protein was purified by metal chelate chromatography on Ni-sepharose 6FF. Tested compounds were dissolved and diluted in 100% DMSO to a concentration 100 fold of the final concentration in the assay. Human recombinant PDE10A ([…]) was expressed in Sf9 cells using a recombinant hPDE10A baculovirus that was made and amplified in house. Cells were harvested after 72 h of infection and the hPDE10A protein was purified by metal chelate chromatography on Ni-sepharose. Compound dilutions (0.4 μl) were added in 384 well plates to 20 μl of incubation buffer (50 mM Tris pH 7.8, 8.3 mM MgCl2, 1.7 mM EGTA). 10 μl of rPDE10A or hPDE10A enzyme in incubation buffer was added and the reaction was started by addition of 10 μl substrate to a final concentration of 60 nM cAMP and […] ^3H-cAMP. The reaction was incubated for 60 minutes at room temperature. After incubation, the reaction was stopped with 20 μl of stop solution consisting of 17.8 mg/ml PDE SPA (scintillation proximity assay) beads. After sedimentation of the beads during 30 minutes the radioactivity was measured in a Perkin Elmer Topcount scintillation counter and results were expressed as cpm. For blanc values the enzyme was omitted from the reaction and replaced by incubation buffer. Control values were obtained by addition of a final concentration of 1% DMSO instead of compound. A best fit curve is fitted by a minimum sum of squares method to the plot of % of control value substracted with blanc value versus compound concentration and the half maximal inhibitory concentration (IC50) value is derived from this curve.

[4] = hPDE2A pIC50, 10 μM cGMP substrate
[5] = 10 μM cGMP substrate, read-out: hPDE2A pIC50 (converted)

Sequence of hPDE10A2 (Q9Y233 267-1055): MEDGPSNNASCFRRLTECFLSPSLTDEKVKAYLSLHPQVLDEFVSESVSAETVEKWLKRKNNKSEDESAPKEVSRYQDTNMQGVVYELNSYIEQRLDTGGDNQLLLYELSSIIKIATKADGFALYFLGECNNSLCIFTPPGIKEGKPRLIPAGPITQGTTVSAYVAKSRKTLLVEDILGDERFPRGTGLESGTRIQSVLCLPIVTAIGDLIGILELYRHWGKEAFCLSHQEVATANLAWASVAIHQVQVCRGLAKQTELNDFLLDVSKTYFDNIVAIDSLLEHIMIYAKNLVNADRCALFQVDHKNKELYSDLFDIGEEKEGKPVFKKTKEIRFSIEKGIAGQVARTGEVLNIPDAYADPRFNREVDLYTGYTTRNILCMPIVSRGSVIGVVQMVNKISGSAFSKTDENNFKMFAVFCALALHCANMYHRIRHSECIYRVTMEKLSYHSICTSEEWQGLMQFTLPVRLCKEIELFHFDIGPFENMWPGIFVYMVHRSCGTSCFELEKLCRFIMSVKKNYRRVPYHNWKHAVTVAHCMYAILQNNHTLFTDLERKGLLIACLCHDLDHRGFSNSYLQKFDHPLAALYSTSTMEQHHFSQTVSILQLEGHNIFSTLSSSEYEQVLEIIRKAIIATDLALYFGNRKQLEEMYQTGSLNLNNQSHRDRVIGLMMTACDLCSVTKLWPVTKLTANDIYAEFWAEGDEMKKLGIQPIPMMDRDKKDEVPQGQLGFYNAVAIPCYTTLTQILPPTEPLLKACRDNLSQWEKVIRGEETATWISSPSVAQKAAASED
T1 sequence (O00408 whole entry): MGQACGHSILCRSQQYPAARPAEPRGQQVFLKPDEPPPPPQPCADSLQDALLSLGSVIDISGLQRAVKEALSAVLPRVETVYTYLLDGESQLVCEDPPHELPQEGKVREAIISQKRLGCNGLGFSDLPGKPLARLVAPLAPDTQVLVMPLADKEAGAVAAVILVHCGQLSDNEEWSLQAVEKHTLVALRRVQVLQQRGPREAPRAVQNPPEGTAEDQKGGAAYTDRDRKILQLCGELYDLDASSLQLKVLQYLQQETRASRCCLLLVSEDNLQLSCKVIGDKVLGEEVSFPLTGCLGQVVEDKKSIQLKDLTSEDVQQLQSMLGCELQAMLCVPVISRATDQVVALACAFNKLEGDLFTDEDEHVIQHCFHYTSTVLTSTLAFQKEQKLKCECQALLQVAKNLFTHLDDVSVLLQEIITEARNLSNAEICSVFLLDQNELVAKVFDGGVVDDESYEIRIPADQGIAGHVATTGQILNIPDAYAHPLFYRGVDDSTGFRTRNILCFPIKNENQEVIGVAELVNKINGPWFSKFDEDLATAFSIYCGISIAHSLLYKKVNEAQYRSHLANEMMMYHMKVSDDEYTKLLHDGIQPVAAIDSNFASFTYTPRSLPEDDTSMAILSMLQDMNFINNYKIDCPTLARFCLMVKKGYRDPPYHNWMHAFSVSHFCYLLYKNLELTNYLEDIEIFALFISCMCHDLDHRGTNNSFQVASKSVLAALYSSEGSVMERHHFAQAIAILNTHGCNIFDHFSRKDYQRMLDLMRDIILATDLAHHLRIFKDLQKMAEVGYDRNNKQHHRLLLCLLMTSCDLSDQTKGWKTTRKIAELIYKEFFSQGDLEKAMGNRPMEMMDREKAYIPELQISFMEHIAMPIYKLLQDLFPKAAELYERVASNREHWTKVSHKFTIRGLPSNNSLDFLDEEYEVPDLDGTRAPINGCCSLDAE

Compound | Emax ([1]; 10 μM cGMP substrate) [%] | IC50 [1, 4] [µM] | hPDE3B pIC50 [2] | hPDE3B Emax [2] | IC50 [3] [µM] | Emax [3] [%] | IC50 [1] [µM] | IC50 [1, 5] [µM]
Cc1nn(C)cc1CN1CC[C@@H](C)[C@H](c2cc(C(F)F)nc3ncnn23)C1.Cl [Compound 52] | 31 | ~2.34 | <5 | 1 | > 10 | 9 | – | –
COc1ccc(CN2CC[C@@H](C)[C@@H](c3cc(C(F)F)nc4ncnn34)C2)c(OC)c1 [Compound 47] | 25 | ~3.47 | <5 | 27 | > 10 | 37 | – | –
Cc1cc(CN2CC[C@@H](C)[C@@](F)(c3cc(C(F)F)nc4ncnn34)C2)cc(C)n1 (single isomer, unassigned) [Compound 49] | 86 | 2.14 | <5 | 17 | > 10 | 12 | – | –
Cc1cc(CN2CC[C@H](C)[C@@H](c3cc(C(F)F)nc4ncnn34)C2)cc(Cl)n1.Cl [Compound 11] | 19 | – | ~5.4 | 71 | ~10.2 | 47 | 3.89 | –
C[C@@H]1CCN(CC2CCOCC2)C[C@H]1c1cc(C(F)F)nc2ncnn12.Cl [Compound 26] | 27 | ~3.09 | <5 | 12 | > 10 | 12 | – | –
CC(C)CN1CC[C@@H](C)[C@H](c2cc(C(F)F)nc3ncnn23)C1 [Compound 29] | 3 | ~8.71 | <5 | −14 | > 10 | 3 | – | –
Cl.FC(F)Oc1cccc(CN2[C@H]3CC[C@H](c4cc(C(F)F)nc5ncnn45)[C@@H]2CC3)c1 [Compound 56] | 97 | – | <5 | 26 | > 10 | 43 | 0.525 | –
C[C@@H]1CCN(Cc2ccc(F)c(C(F)(F)F)c2)C[C@H]1c1cc(C(F)F)nc2ncnn12 [Compound 30] | 99 | – | <5 | 21 | 7.94 | 55 | 0.49 | –
Cc1cc(CN2CC[C@@H](C)[C@H](c3cc(C(F)F)nc4ncnn34)C2)cc(C2CC2)n1 [Compound 9] | 100 | – | <5 | 34 | 1.58 | 83 | – | 0.00525
COc1ccc(CN2CC[C@H](C)[C@@H](c3cc(C(F)F)nc4ncnn34)C2)c(OC)c1.Cl [Compound 46] | 9 | 7.24 | <5 | 17 | > 10 | -6 | – | –
Cc1cc(CN2CCC(C)C(F)(c3cc(C(F)F)nc4ncnn34)C2)cc(C)n1 (stereo not drawn) [Compound 51] | 91 | 2.95 | 5.11 | 67 | > 10 | 28 | – | –
Cc1cc([C@H](C)N2CC[C@@H](C)[C@H](c3cc(C(F)F)nc4ncnn34)C2)cc(Cl)n1 (single isomer, unassigned) [Compound 4] | 99 | – | <5 | 45 | 1.1 | 88 | – | 0.00776
Cc1cc([C@@H](C)N2CC[C@@H](C)[C@H](c3cc(C(F)F)nc4ncnn34)C2)cc(Cl)n1 (single isomer, unassigned) [Compound 5] | 100 | – | 5.13 | 55 | 1.51 | 87 | – | 0.0776
C[C@H]1CCN(CC2CCOCC2)C[C@@H]1c1cc(C(F)F)nc2ncnn12.Cl [Compound 27] | 20 | ~4.9 | <5 | 3 | > 10 | 11 | – | –

— US11319321B2, “[1,2,4]triazolo[1,5-a]pyrimidine compounds as PDE2 inhibitors” (Janssen Pharmaceutica NV, priority 2016, dated 2022)
